Where no end group is shown, it is not given here.
Columns and labels:
Assay type in all cases: in vivo
[1] = tested on: ovariectomized rat osteoporosis model (OVX); test: Experiment 1 (administration schedule 1): BMD of left proximal tibia by pQCT in OVX rats; conditions: for BMD of the left leg tibia (4 mm slice from proximal end) at intermediate autopsy: Experiment 1, FIG. 1, oral sole administration from next day of OVX, intermediate autopsy 56 days after OVX; for BMD of the left leg tibia on the 83rd day, in combination with PTH / BMD of the left leg tibia on the 83rd day, each alone: Experiment 1, FIG. 3; for BMD of the left leg tibia on the 83rd day, in combination with PTH: bone resorption inhibitor 83 days orally plus PTH 10 μg/kg s.c. from 57th day, versus PTH alone; for BMD of the left leg tibia on the 83rd day, each alone: sole administration, OVX-induced BMD loss
Text: (§1) For the purpose of clarifying the characteristics, the effect of a cathepsin K inhibitor (a bone resorption inhibitor) in combination with a type of PTH (a bone formation stimulator) was examined using an ovariectomized rat osteoporosis model (abbreviated as OVX hereafter). The effect of a bisphosphonate (BP) in combination with a type of PTH was also examined. The effects were compared with each other.
(§2) In the following examples, PTH (1-34) is abbreviated as PTH unless specified. 2) Test Method Experiment 1 (Administration Schedule 1): Administration in Combination with PTH After Repeated Administration of Bone Resorption Inhibitor
(§3) Female retired rats (F344/NSlc) were used. At the age of 6 months, 87 rats were assigned to OVX (ovariectomy) and the other 10 rats were assigned to sham operation.
(§4) Another 15 rats were assigned to OVX and 5 rats were assigned to sham operation, in order to these groups to an autopsy in the course.
(§5) To the group the compound was administered; a bone resorption inhibitor was administered orally from the next day of OVX over a period of 83 days.
[…] Other groups to which the compound was administered, a bone resorption inhibitor was administered orally, and PTH or vehicle (saline containing 0.1% BSA) was administered subcutaneously, 55 days after OVX. […] The interval between the first and the second administration was 5-7 hours.
(§6) PTH was administered by subcutaneous injection from the back three times a week by a dose of 10 μg/kg from the 57th day after OVX. The drugs were administed according to the grouping of table 1.
(§7) In the group in which the compound was administered, on the 83rd day after OVX, BMD of tibia, lumbar BMD, concentration of urinary C-terminal telopeptide of type I collagen (CTX) and serum osteocalcin (OC) were measured. In the autopsy groups, concentration of urinary CTX and serum OC were measured on samples from the 55th day.
The BMD was determined by measurement device of peripheral BMD (pQCT: peripheral Quantitative Computed Tomography, XCT-Research SA+Stratec Medizintechnik GmbH, version 5.40) with voxel size 0.12 mm. The BMD of the left proximal tibia (at a point 4 mm from the proximal end) was measured.
(§8) In order to compare the sham group and the OVX control group, t-test (EXSAS (version 6.1), ARM SYSTEX CO., LTD.); in order to compare the effectiveness of the test compounds, Tukey test (EXSAS (version 6.1), ARM SYSTEX CO., LTD.), were used respectively. Less than 5% was assumed to be a significant difference.

[2] = tested on: ovariectomized rat osteoporosis model (OVX); test: Experiment 2: urinary CTX concentration in OVX rats; conditions: Experiment 2, FIG. 6
[3] = tested on: ovariectomized rat osteoporosis model (OVX); test: Experiment 1: urinary CTX concentration, bone resorption marker, in OVX rats; conditions: Experiment 1, FIG. 4; for urinary CTX concentration on the 83rd day, combination administration with PTH: in combination with PTH
Text: For the purpose of clarifying the characteristics, the effect of a cathepsin K inhibitor (a bone resorption inhibitor) in combination with a type of PTH (a bone formation stimulator) was examined using an ovariectomized rat osteoporosis model (abbreviated as OVX hereafter). The effect of a bisphosphonate (BP) in combination with a type of PTH was also examined. The effects were compared with each other. • (1) a solution of the compound (I): […] In the following examples, PTH (1-34) is abbreviated as PTH unless specified. 2) Test Method Experiment 1 (Administration Schedule 1): Administration in Combination with PTH After Repeated Administration of Bone Resorption Inhibitor Female retired rats ([…] used. At the age of 6 months, 87 rats were assigned to OVX (ovariectomy) and the other 10 rats were assigned to sham operation. To the group the compound was administered; a bone resorption inhibitor was administered orally from the next day of OVX over a period of 83 days. […] On 55 days after OVX, the autopsy was done in autopsy group. Other groups to which the compound was administered, a bone resorption inhibitor was administered orally, and PTH or vehicle (saline containing 0.1% BSA) was administered subcutaneously, 55 days after OVX. […] The interval between the first and the second administration was 5-7 hours. PTH was administered by subcutaneous injection from the back three times a week by a dose of 10 μg/kg from the 57th day after OVX. The drugs were administed according to the grouping of table 1. In the group in which the compound was administered, on the 83rd day after OVX, BMD of tibia, lumbar BMD, concentration of urinary C-terminal telopeptide of type I collagen (CTX) and serum osteocalcin (OC) were measured. In the autopsy groups, concentration of urinary CTX and serum OC were measured on samples from the 55th day. Urine was collected before the day of an autopsy, and urinary CTX was measured with a kit for rat CTX measurement (RatLaps ELISA; nordicbioscience). In measurement of absorbance, microplate reader (SPECTRA MAX 250, Japan Molecular Devices Inc.) was used. […] In order to compare the sham group and the OVX control group, […] CO., LTD.); in order to compare the effectiveness of the test compounds, Tukey test ([…] CO., LTD.), were used respectively. Less than 5% was assumed to be a significant difference.

[4] = tested on: ovariectomized rat osteoporosis model (OVX); test: Experiment 1: serum osteocalcin (OC) concentration, bone formation marker, in OVX rats; conditions: for serum OC concentration (bone formation marker) at intermediate autopsy: Experiment 1, FIG. 2, repeated oral administration for 55 days; for serum OC concentration on the 83rd day, in combination with PTH: combination with PTH compared with PTH sole administration
Text: as §1, §2, §3, §4, §5
On 55 days after OVX, the autopsy was done in autopsy group. Other groups to which the compound was administered, a bone resorption inhibitor was administered orally, and PTH or vehicle (saline containing 0.1% BSA) was administered subcutaneously, 55 days after OVX. […] The interval between the first and the second administration was 5-7 hours.
as §6, §7
Fifty-five days after administration, in the autopsy, collected serum was used to measure the serum OC concentration with a kit for OC measurement (BIOTRAK; Osteocalcin, rat ELISA system).
as §8

[5] = tested on: ovariectomized rat osteoporosis model (OVX); test: Experiment 2 (administration schedule 2): BMD of tibia by pQCT in OVX rats; conditions: Experiment 2, FIG. 5; for BMD of the tibia on the 83rd day, each alone: 83 days from next day of OVX, sole administration

Row | Molecule | BMD of the left leg tibia (4 mm slice from proximal end) at intermediate autopsy [1] | BMD of the left leg tibia on the 83rd day, in combination with PTH [1] | BMD of the left leg tibia on the 83rd day, each alone [1] | inhibitory effect on urinary CTX compared with compound (I) [2] | urinary CTX concentration on the 83rd day, combination administration with PTH [3] | urinary CTX concentration on the 83rd day, sole administration [3] | urinary CTX inhibitory effect compared with compound (I) ([3]; sole and combination administration with PTH) | serum OC concentration (bone formation marker) at intermediate autopsy [4] | serum OC concentration on the 83rd day, in combination with PTH ([4]; Experiment 1, FIG. 4) | BMD of the tibia on the 83rd day, each alone [5] | urinary CTX concentration (bone resorption marker) on the 83rd day, combination administration ([2]; in combination with PTH) | urinary CTX concentration (bone resorption marker) on the 83rd day, sole administration ([2]; sole administration group) | effect on increase of BMD of tibia in combination with PTH ([5]; 83 days in combination with PTH 3 μg/kg s.c.) | serum OC concentration on the 83rd day, PTH sole administration ([4]; Experiment 1, FIG. 4, PTH 10 μg/kg s.c.)
1 | NCCCC(O)(P(=O)(O)O)P(=O)(O)O [ALN, Alendronate sodium hydrate] | showed an increasing effect of BMD in the tibia | did not show any additive effect | suppressed the OVX-induced BMD loss in the tibia | weaker than that of compound (I) | showed a urinary CTX inhibitory effect | showed a urinary CTX inhibitory effect | weaker than that of compound (I) | decreased | significantly decreased serum OC concentration | inhibited the reduction of BMD of tibia caused by OVX | – | – | – | –
2 | CN1CCS/C1=N\NC(=O)C(=O)C(NC(=O)C1CCCCCC1)C1CCOCC1.Cl (stereo not drawn) [compound (I), N-{3-[(2Z)-2-(3-methyl-1,3-thiazolidin-2-ylidene)hydrazino]-2,3-dioxo-1-tetrahydro-2H-pyran-4-ylpropyl}cycloheptanecarboxamide hydrochloride] | showed an increasing effect of BMD in the tibia | showed an additive effect in BMD of tibia | suppressed the OVX-induced BMD loss in the tibia | – | showed an inhibitory effect | showed an inhibitory effect | – | not decreased | did not decrease the serum OC concentration significantly | inhibited the reduction of BMD of tibia caused by OVX | has an inhibitory effect on urinary CTX concentration | has an inhibitory effect on urinary CTX concentration | greater than that of ALN in combination with PTH | –
3 | human PTH (1-34) amide (SVSEIQLMHNLGKHLNSMERVEWLRKKLQDVHNF-NH2; UniProt P01270 32-65, looked up, fragment) [partial peptide of PTH, bone formation stimulator (APC Lot.N05129A1)] | – | – | suppressed the OVX-induced BMD loss in the tibia | – | – | – | – | – | – | inhibited the reduction of BMD of tibia caused by OVX | – | – | – | increased

Reference: US7632813B2, “Bone densifying agent characterized by use of cathepsin K inhibitor with PTH” (Ono Pharmaceutical Co., Ltd., priority 2004, dated 2009)
